Measured values from the supplement of paper PMC11061612.

Legend:
Capivasertib = compound: C1CN(CCC1(C(=O)N[C@@H](CCO)C2=CC=C(C=C2)Cl)N)C3=NC=NC4=C3C=CN4 [Capivasertib]; details: max 10 µM
Procedure, shortened: (§1)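 Cancer cell lines were dosed for 72 hours (final DMSO typically 0.2%) after 24 hours at 37°C and 5% CO2 in 1536-well plates containing 7.5 μl DMEM/F12 or RPMI with 10% FBS. Viability came from CellTiter-Glo 2.0 luminescence, scaled between blank-well and DMSO-well means, and dose responses were fitted to a two-parameter logistic curve with a non-linear mixed effects model. The single-agent IC50 was obtained from this fit.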

AZD1775 = compound: C=CCn1c(=O)c2cnc(Nc3ccc(N4CCN(C)CC4)cc3)nc2n1-c1cccc(C(C)(C)O)n1 [AZD1775]; details: max 3 µM
Procedure, shortened: as §1

Trametinib = compound: CC(=O)Nc1cccc(-n2c(=O)n(C3CC3)c(=O)c3c(Nc4ccc(I)cc4F)n(C)c(=O)c(C)c32)c1 [Trametinib]; details: max 1 µM
Procedure, shortened: as §1

Palbociclib = compound: CC(=O)c1c(C)c2cnc(Nc3ccc(N4CCNCC4)cn3)nc2n(C2CCCC2)c1=O [Palbociclib]; details: max 10 µM
Procedure, shortened: as §1

AZD1390 = compound: CC(C)n1c(=O)n(C)c2cnc3cc(F)c(-c4ccc(OCCCN5CCCCC5)nc4)cc3c21 [AZD1390]; details: max 0.3 µM
Procedure, shortened: as §1

Venetoclax = compound: CC1(C)CCC(CN2CCN(c3ccc(C(=O)NS(=O)(=O)c4ccc(NCC5CCOCC5)c([N+](=O)[O-])c4)c(Oc4cnc5[nH]ccc5c4)c3)CC2)=C(c2ccc(Cl)cc2)C1 [Venetoclax]; details: max 1 µM
Procedure, shortened: as §1

Dasatinib = compound: CC1=C(C(=CC=C1)Cl)NC(=O)C2=CN=C(S2)NC3=CC(=NC(=N3)C)N4CCN(CC4)CCO [Dasatinib]; details: max 2 µM
Procedure, shortened: as §1

SG3199 = compound: CC1=CN2[C@@H](C1)C=NC3=CC(=C(C=C3C2=O)OC)OCCCCCOC4=C(C=C5C(=C4)N=C[C@@H]6CC(=CN6C5=O)C)OC [SG3199]; details: max 0.001 µM
Procedure, shortened: as §1

AZD2811 = compound: CCN(CCO)CCCOc1ccc2c(Nc3cc(CC(=O)Nc4cccc(F)c4)[nH]n3)ncnc2c1 [AZD2811]; details: max 1 µM
Procedure, shortened: as §1

SN-38 = compound: CCc1c2c(nc3ccc(O)cc13)-c1cc3c(c(=O)n1C2)COC(=O)[C@]3(O)CC [SN-38]; details: max 0.3 µM
Procedure, shortened: as §1

AZD0156 = compound: CN(C)CCCOc1ccc(-c2ccc3ncc4c(c3c2)n(C2CCOCC2)c(=O)n4C)cn1 [AZD0156]; details: max 3 µM
Procedure, shortened: as §1

AZD4320 = compound: CN(CC[C@H](CSC1=CC=CC=C1)NC2=C(C=C(C=C2)S(=O)(=O)NC(=O)C3=CC=C(C=C3)N4CCC(CC4)[C@H](C5=CC=CC=C5C6=CC=C(C=C6)Cl)O)S(=O)(=O)C(F)(F)F)CCO [AZD4320]; details: max 1 µM
Procedure, shortened: as §1

Alisertib = compound: COc1cc(Nc2ncc3c(n2)-c2ccc(Cl)cc2C(c2c(F)cccc2OC)=NC3)ccc1C(=O)O [Alisertib]; details: max 10 µM
Procedure, shortened: as §1

Gefitinib = compound: COc1cc2ncnc(Nc3ccc(F)c(Cl)c3)c2cc1OCCCN1CCOCC1 [Gefitinib]; details: max 10 µM
Procedure, shortened: as §1

Prexasertib = compound: COc1cccc(OCCCN)c1-c1cc(Nc2cnc(C#N)cn2)n[nH]1 [Prexasertib]; details: max 1 µM
Procedure, shortened: as §1

Doxorubicin = compound: COc1cccc2c1C(=O)c1c(O)c3c(c(O)c1C2=O)C[C@@](O)(C(=O)CO)C[C@@H]3O[C@H]1C[C@H](N)[C@H](O)[C@H](C)O1 [Doxorubicin]; details: max 1 µM
Procedure, shortened: as §1

AZD5153 = compound: COc1nnc2ccc(N3CCC(c4ccc(OCCN5CCN(C)C(=O)[C@H]5C)cc4)CC3)nn12 [AZD5153]; details: max 1 µM
Procedure, shortened: as §1

Lapatinib = compound: CS(=O)(=O)CCNCc1ccc(-c2ccc3ncnc(Nc4ccc(OCc5cccc(F)c5)c(Cl)c4)c3c2)o1 [Lapatinib]; details: max 10 µM
Procedure, shortened: as §1

AZD8186 = compound: C[C@@H](Nc1cc(F)cc(F)c1)c1cc(C(=O)N(C)C)cc2c(=O)cc(N3CCOCC3)oc12 [AZD8186]; details: max 3 µM
Procedure, shortened: as §1

Crizotinib = compound: C[C@@H](Oc1cc(-c2cnn(C3CCNCC3)c2)cnc1N)c1c(Cl)ccc(F)c1Cl [Crizotinib]; details: max 10 µM
Procedure, shortened: as §1

Savolitinib = compound: C[C@@H](c1ccc2nccn2c1)n1nnc2ncc(-c3cnn(C)c3)nc21 [Savolitinib]; details: max 1 µM
Procedure, shortened: as §1

AZD6738 = compound: C[C@@H]1COCCN1C2=NC(=NC(=C2)C3(CC3)[S@](=N)(=O)C)C4=C5C=CNC5=NC=C4 [AZD6738]; details: max 10 µM
Procedure, shortened: as §1

AZD5991 = compound: Cc1c2c(nn1C)CSCc1cc(n(C)n1)CSc1cc(c3ccccc3c1)OCCCc1c(C(=O)O)n(C)c3c-2c(Cl)ccc13 [AZD5991]; details: max 1 µM
Procedure, shortened: as §1

AZD7648 = compound: Cc1cc2ncnn2cc1Nc1ncc2c(n1)n(C1CCOCC1)c(=O)n2C [AZD7648]; details: max 10 µM
Procedure, shortened: as §1

Taselisib = compound: Cc1nc(-c2cn3c(n2)-c2ccc(-c4cnn(C(C)(C)C(N)=O)c4)cc2OCC3)n(C(C)C)n1 [Taselisib]; details: max 10 µM
Procedure, shortened: as §1

Selumetinib = compound: Cn1cnc2c(F)c(Nc3ccc(Br)cc3Cl)c(C(=O)NOCCO)cc21 [Selumetinib]; details: max 10 µM
Procedure, shortened: as §1

MK-2206 = compound: NC1(c2ccc(-c3nc4ccn5c(=O)[nH]nc5c4cc3-c3ccccc3)cc2)CCC1 [MK-2206]; details: max 10 µM
Procedure, shortened: as §1

Olaparib = compound: O=C(c1cc(Cc2n[nH]c(=O)c3ccccc23)ccc1F)N1CCN(C(=O)C2CC2)CC1 [Olaparib]; details: max 10 µM
Procedure, shortened: as §1

Row | Cell Line | IC50, cell viability 72 h (Capivasertib) [nM] | IC50, cell viability 72 h (AZD1775) [nM] | IC50, cell viability 72 h (Trametinib) [nM] | IC50, cell viability 72 h (Palbociclib) [nM] | IC50, cell viability 72 h (AZD1390) [nM] | IC50, cell viability 72 h (Venetoclax) [nM] | IC50, cell viability 72 h (Dasatinib) [nM] | IC50, cell viability 72 h (SG3199) [nM] | IC50, cell viability 72 h (AZD2811) [nM] | IC50, cell viability 72 h (SN-38) [nM] | IC50, cell viability 72 h (AZD0156) [nM] | IC50, cell viability 72 h (AZD4320) [nM] | IC50, cell viability 72 h (Alisertib) [nM] | IC50, cell viability 72 h (Gefitinib) [nM] | IC50, cell viability 72 h (Prexasertib) [nM] | IC50, cell viability 72 h (Doxorubicin) [nM] | IC50, cell viability 72 h (AZD5153) [nM] | IC50, cell viability 72 h (Lapatinib) [nM] | IC50, cell viability 72 h (AZD8186) [nM] | IC50, cell viability 72 h (Crizotinib) [nM] | IC50, cell viability 72 h (Savolitinib) [nM] | IC50, cell viability 72 h (AZD6738) [nM] | IC50, cell viability 72 h (AZD5991) [nM] | IC50, cell viability 72 h (AZD7648) [nM] | IC50, cell viability 72 h (Taselisib) [nM] | IC50, cell viability 72 h (Selumetinib) [nM] | IC50, cell viability 72 h (MK-2206) [nM] | IC50, cell viability 72 h (Olaparib) [nM]
1 | A101D (Melanoma) | > 10000 | 687 | 148 | > 10000 | > 300 | > 1000 | > 2000 | > 1 | > 1000 | 55.9 | > 3000 | > 1000 | 5360 | > 10000 | 181 | 456 | 155 | > 10000 | > 3000 | > 10000 | > 1000 | 4490 | 198 | > 10000 | 2710 | 3920 | > 10000 | > 10000
2 | LS-411N (Colorectal Carcinoma) | 7040 | 412 | 44.7 | > 10000 | > 300 | > 1000 | > 2000 | > 1 | > 1000 | > 300 | > 3000 | > 1000 | > 10000 | > 10000 | 42.4 | > 1000 | 169 | > 10000 | > 3000 | > 10000 | > 1000 | 4060 | > 1000 | > 10000 | > 10000 | 1340 | > 10000 | > 10000
3 | DU-4475 (Breast Carcinoma) | > 10000 | 437 | 1.18 | > 10000 | > 300 | > 1000 | > 2000 | > 1 | > 1000 | 1.93 | > 3000 | 93.5 | 543 | > 10000 | 86.4 | 32.3 | 210 | 6760 | > 3000 | 3780 | > 1000 | 1700 | > 1000 | > 10000 | > 10000 | 55.6 | > 10000 | 5190
4 | DMS-53 (Small Cell Lung Carcinoma) | > 10000 | > 3000 | > 1000 | > 10000 | > 300 | > 1000 | > 2000 | > 1 | > 1000 | 37 | > 3000 | 174 | > 10000 | > 10000 | > 1000 | > 1000 | > 1000 | > 10000 | > 3000 | > 10000 | > 1000 | > 10000 | > 1000 | > 10000 | > 10000 | > 10000 | > 10000 | > 10000
5 | ESO26 (Esophageal Adenocarcinoma) | 8590 | 1470 | > 1000 | > 10000 | > 300 | > 1000 | > 2000 | > 1 | > 1000 | 223 | > 3000 | > 1000 | > 10000 | 4700 | 380 | > 1000 | 398 | 814 | > 3000 | > 10000 | > 1000 | > 10000 | > 1000 | > 10000 | 1840 | > 10000 |  | > 10000
6 | NCI-H2228 (Lung Adenocarcinoma) | > 10000 | 2870 | 955 | > 10000 | > 300 | > 1000 | > 2000 | > 1 | > 1000 | 82.4 | > 3000 | > 1000 | 8940 | > 10000 | 182 | 557 | > 1000 | > 10000 | > 3000 | 5480 | > 1000 | > 10000 | > 1000 | > 10000 | 2010 | > 10000 |  | > 10000
7 | NCI-H716 (Colorectal Carcinoma) | > 10000 | 1600 | > 1000 | > 10000 | > 300 | > 1000 | > 2000 | > 1 | > 1000 | > 300 | > 3000 | > 1000 | 2230 | > 10000 | 181 | > 1000 | 775 | > 10000 | > 3000 | > 10000 | > 1000 | > 10000 | > 1000 | > 10000 | > 10000 | > 10000 |  | > 10000
